Test results taken from patent US20140274682A1, “COMPOSITIONS AND METHODS FOR REDUCING DUST AND REPELLING, CONTROLLING, OR DIRECTING AN INSECT” (priority 2013, published 2014).

Key:
honeybees = assay: Honeybee repulsion experiment at feeding stations; type: in vivo; conditions: 2% by weight with 50% sucrose solution in feeder
Experimental: FIG. 5 describes the feeding station arrangement (A and B) for the honeybee repulsion experiments described herein. As set forth in […], panel (A) sets forth the bee cage positions on the left portion of panel (A) with the randomized feeding station positions on the right portion of panel (A). Panel (B) sets forth an alignment of the randomized feeding station positions with a distance of two meters between feeding stations. A total of eight feeding stations were evaluated at a ten meter distance in front of the respective bee hives. The feeding stations were placed two meters apart from one another.
Honeybees were trained to deep feeders (eight positions), each containing a 50% sucrose solution for one day. After the honeybees were trained to each feeder, the 50% sucrose feeder at randomized positions 1-8 was replaced with a shallow feeder containing a combination of repelling compounds and a 50% sucrose solution according to Table 9. In accordance with FIGS. 5 and 6, 2% by weight of Camphor oil (T4), Ajowan oil (T5), Camphor powder (T6), Rosemary oil (T7), and 2-Decanone (T8) in combination with a 50% sucrose treatment were added to feeders on day two.
Table 9 describes active agents evaluated for bee repulsion and their randomized feeding station positions. As described in […], T1 (control), T2 (control), T3 (control), T4 (Camphor oil), T5 (Ajowan oil), T6 (Camphor powder), T7 (Rosemary oil), and T8 (2-Decanone).
FIG. 5 evaluates the number of bees visiting a respective feed station over a time interval. FIG. 6 sets forth the mean number of honeybees visiting feeding station over a period of four hours.

[1] = Stability test of Poncho 600 with Eugenol, clothianidin content by HPLC; type: physicochemical; conditions: in Poncho combined with Eugenol; up to 54° C. for seven days
Experimental: Table 10 describes a stability test with a combination of Eugenol and Poncho evaluated at room temperature, 40° C., and 54° C. at zero time, 3 days, and 7 days as confirmed by high performance liquid chromatography (HPLC).

[2] = Stability test of Poncho 600 with α-terpineol, clothianidin content by HPLC; type: physicochemical; conditions: in Poncho combined with α-terpineol; up to 54° C. for eight days
Experimental: Table 11 describes a stability test with a combination of α-terpineol and Poncho 600 evaluated at room temperature, 40° C., and 54° C. at zero time, 2 days, and 8 days as confirmed by HPLC.

Row | Structure (SMILES) | Repellency to honeybees at 24 hours (honeybees) | Repellency to honeybees at 24 hours (honeybees; listed as 2-decanone) | Repellency to honeybees over the 4 hour assessment period (honeybees; full 4 hour assessment period) | Chemical stability of clothianidin content [1] | Chemical stability of clothianidin content [2]
1 | CCCCCCCCC(C)=O [Compound 2-Decanone, 2-decanone (methyl-n-octyl ketone)] | exhibited repellency | still repellent | highly repellent |  | 
2 | CN/C(=N\[N+](=O)[O-])NCc1cnc(Cl)s1 [clothianidin] |  |  |  | exhibited chemical stability | exhibited chemical stability
